Data taken from US20230042176A1, “METHOD FOR TREATING ANGELMAN SYNDROME AND RELATED DISORDERS” (priority 2019, published 2023).
Entries after “also recorded” stand apart in the source; their conditions may differ. Where two headings read alike, the source gives them in different places. Peptide text beside a SMILES is read from it. * marks the point of attachment. Cbz = O=C(OCc1ccccc1)*

Assays:
[1] = system: neurons of WT and UBE3A KO cortical organoids; experiment: Whole cell and perforated patch clamp recordings of neurons in human cortical organoids; format: cell-based; settings: for changes in neuronal excitability, fAHP, and network hyperactivity and synchronization in human cortical organoids from UBE3A knockout stem cells: summary statement
Description: Cortical organoids were generated based on a published protocol (Pasca et al., Nat Methods 12, 671-678 (2015)) with minor modifications. hPSCs were dissociated to single cells by TrypLE Express (Thermofisher) and seeded into U-shaped ultra-low attachment 96-well plate (Corning) at a density of 6K cells/well in the presence of thiazovivin (5 μM, Tocris). After spheroid formation, media were completely changed to Neural Induction Media (NIM: DMEM/F12 (Nacalai Tesque), 20% KnockOut Serum Replacement (Thermofisher), 1% minimum essential media-nonessential amino acid (Thermofisher), 1% GlutaMax (Thermofisher), 1% Antibiotic-Antimycotic (Thermofisher), 0.1% β-mercaptoethanol (Thermofisher), 5 μM Dorsomorphin (Tocris), 10 μM SB431542 (Stemgent)) for the next 6 days, with media change every other day. Starting day 7, media were changed to Neural Growth Media (NGM: Neurobasal (Thermofisher), 1:50 B27 without vitamin A (Thermofisher), 1% GlutaMAX (Thermofisher), 1% Antibiotic-Antimycotic (Thermofisher), 20 ng/ml EGF (PeproTech), 20 ng/ml FGF-basic (PeproTech)) for the next 18 days, with media change every other day. Starting day 25, organoids were transferred out of 96-well plates to 6-well plates (6-8 organoids per well), cultured in Organoid Media I (OMI: Neurobasal (Thermofisher), 1:50 B27 without vitamin A (Thermofisher), 1% GlutaMax (Thermofisher), 1% Antibiotic-Antimycotic (Thermofisher), 10 mM HEPES (Thermofisher), 10 ng/ml BDNF (PeproTech), 10 ng/ml NT3 (PeproTech)) until day 100 on an orbital shaker (75 rev/min). After day 100, media were changed to Organoid Media II (OMII: BrainPhys (Stemcell Technologies), 1:50 SM1 (Stemcell Technologies), 1% GlutaMax (Thermofisher), 1% Antibiotic-Antimycotic (Thermofisher), 10 mM HEPES (Thermofisher), 10 ng/ml BDNF (PeproTech), 10 ng/ml GDNF (PeproTech), 10 ng/ml NT3 (PeproTech), 100 μM db-cAMP (Sigma)).
(§1) Whole cell patch clamp recordings of neurons in the organoid (wholemount) and acute mouse hippocampal slices were performed in a recording chamber (RC-26GLP, Warner Instruments) and submerged under continuously perfused artificial CSF (aCSF) containing (in mM): 119 NaCl, 2.5 KCl, 11 glucose, 26 NaHCO3, 1.25 NaH2PO4, 2.5 CaCl2 and 2 MgCl2 saturated with 95% O2 and 5% CO2 at 30-32° C. Neuronal intrinsic excitability was measured in the presence of CNQX (20 μM, Tocris) and APV (50 μM, Tocris) to block all excitatory synaptic responses. We targeted neurons near the surface of organoids with reasonably pyramidal-shaped cell bodies under our DIC/IR camera. […] Signals were recorded using a MultiClamp 700B amplifier, filtered at 2 kHz using a Bessel filter, and digitized at 40 kHz with a Digidata 1550B analog-to-digital (A/D) board (Molecular Devices, Sunnyvale, Calif.). […]

[2] = system: WT and UBE3A KO human induced neurons; experiment: Whole cell patch clamp recordings of human induced neurons (fAHP amplitude, AP firing frequency); format: cell-based
healthy human volunteers = settings: i.v. infused for 1 hour; cited from earlier work
[3] = system: BK protein level in HEK293 cells; experiment: BK protein level in HEK293 cells overexpressing UBE3A (immunoblotting); format: cell-based, human; settings: proteasome inhibitor 1 μM
Description: Induced neurons or cortical organoids were lysed in RIPA buffer supplemented with protease and phosphatase inhibitor cocktails. Protein samples were loaded onto 8-12% Bis-TRIS (NP0322BOX Invitrogen) and were transferred onto a PVDF membrane. After blocking with 5% milk in TBS-T buffer for 1 hour, PVDF membranes were incubated with primary antibodies overnight at 4° C., followed by 1-hour incubation with mouse or rabbit HRP antibody (1:2000, Invitrogen) at RT. Images were visualized by either chemiluminescence or NIR fluorescent detection using c600 Imaging System (Azure Biosystems Inc). HEK293 cells were grown in DMEM (Sigma) containing 10% FBS (Gibco) and 100 U/mL penicillin-streptomycin (Gibco) in a 5% CO2 incubator. Cells were transfected with a Lipofectamine PLUS (Invitrogen), subsequently were treated with 1 μM of MG132 (A.G Scientific) for another 24 h. Next, cells were lysed in PBS containing 1% SDS (Invitrogen), 1 mM PMSF (USB), 10 μg/ml aprotinin (Roche), and 1% (v/v) phosphatase inhibitor cocktail 2 and 3 (Sigma).

[4] = system: hippocampal neurons of WT and Ube3a m-/p+ mice; experiment: Whole cell patch clamp recordings in acute mouse hippocampal slices; format: cell-based; settings: paxilline, postnatal day 28
Description: as §1
For fAHP analysis in all recordings, automatic detection and calculation was conducted by customized matlab scripts adapted from published algorithm (Bean, Nat Rev Neurosci 8, 451-465 (2007); Platkiewicz and Brette, PLoS Comput Biol 6, e1000850 (2010); Yu et al., J Neurosci 28, 7260-7272 (2008)). […] The fAHP amplitude of each neuron was calculated by averaging the fAHP of the first spike in all current injection steps. […]

WT and Ube3a m-/p+ mice [5] = experiment: In vivo local field potential (LFP) recording in freely moving mice; set-up: species or system mouse; settings: paxilline 0.35 mg/kg, 4 times with 1-hour interval
Description: […]. Eye cream was applied to a mouse to protect the eye from drying due to anaesthesia. 2% lidocaine was injected under the scalp and subsequently scalp was removed to expose the skull. […] Stereotrodes were made with platinum-iridium wire (90%:10%, A-M system) and unilaterally implanted into BIC. Stainless steel screw (AP: 2 mm, Lateral: 2 mm) was used as a reference electrode. Iodopavidone was applied for disinfection around the surgical area after dental cement mounting. Mice were maintained on a heating pad at 37° C. until waking from the anaesthesia before putting back to home cages. LFP recordings were performed on the mice 5 days after surgery. LFP recordings were conducted in a copper-Faraday chamber. For evoked LFP, auditory stimulus (˜125 dB, 500 Hz) was provided by a speaker (EKX, Electro-Voice) driven by a customized program in Matlab. LFP was recorded with sampling rate at 500 Hz and filtered with 0.5 Hz high-pass and 100 Hz low-pass by EEG/EMG recording system (Pinnacle). […] Video was recorded simultaneously for further analysis. After all recordings, mice were sacrificed, and their brains were isolated and fixed using 4% PFA in PBS and the implanted electrode locations were confirmed by either bright field imaging or DAPI staining and subsequent fluorescence imaging.

WT and Ube3a m-/p+ mice [6] = format: in vivo, mouse; settings: for seizure grade based on Racine's scale: no paxilline
Description: […]. Seizure severity of mice was dependent on multiple variables such as picrotoxin dose, mice age, and their body weights. […] Videos were recorded for all the behavioural experiments. Behavioral analysis was performed in a double-blind manner with littermates (siblings of wild-type (Ube3a^m+/p+) and maternal knockout (Ube3a^m−/p+) mice that produced from same pairs of Ube3a^m+/p− females and Ube3a^m+/p+ males).

[7] = system: WT and UBE3A KO cortical organoids; experiment: Two-photon calcium imaging of cortical organoids; format: cell-based, human; settings: paxilline 10 μM
WT and Ube3a m-/p+ mice [8] = experiment: Flurothyl-induced seizures; format: in vivo, mouse; settings: paxilline pre-treatment 0.35 mg/kg i.p.; flurothyl 100 μl/min
Source text: Chamber was cleaned and the tissue paper was replaced before each new trial.

CCCNc1nc(NCCC)nc(N(C)OC)n1 [GAL-021, 2-N-methoxy-2-N-methyl-4-N,6-N-dipropyl-1,3,5-triazine-2,4,6-triamine]
changes in neuronal excitability, fAHP, and network hyperactivity and synchronization in human cortical organoids from UBE3A knockout stem cells [1]: normalized | fAHP amplitude in KO hINs ([2]; GAL-021 50 μM or 100 μM, KO neurons): lowered | fAHP amplitude (and AP firing frequencies) in WT hINs ([2]; GAL-021 50 μM or 100 μM, WT neurons): did not change; also recorded: did not affect | spike frequency and fAHP in KO neurons compared with WT hINs ([2]; GAL-021 100 μM): Restoration | fAHP amplitude in KO hINs ([2]; GAL-021 200 μM, KO neurons): not significantly different from that of 100 μM | fAHP amplitude in KO hINs ([2]; GAL-021 200 μM, KO neurons, listed as GAL021): normalized fAHP | fAHP amplitude in WT hINs ([2]; GAL-021 200 μM, WT neurons): lowered | fAHP amplitude in WT hINs ([2]; GAL-021 200 μM, WT neurons, listed as GAL021): decreased fAHP | differences in fAHP amplitude and AP firing frequency between KO and WT neurons ([2]; GAL-021 50 or 100 μM): normalized | intrinsic excitability associated with augmented fAHP in UBE3A-deficient human neurons ([2]; GAL-021 application (50, 100, 200 μM tested)): returns to normal | tolerated i.v. infusion dosage (healthy human volunteers): 0.1 to 0.96 mg/kg/h

CC(C)C[C@@H](C=O)NC(=O)[C@H](CC(C)C)NC(=O)[C@H](CC(C)C)NC(=O)OCc1ccccc1 [MG312] (Cbz-Leu-Leu-Leu-aldehyde)
decrease in the BK protein level caused by UBE3A coexpression [3]: abolished

CC(C)(O)[C@H]1O[C@H]2CC[C@@]3(C)[C@@](O)(CC[C@H]4Cc5c([nH]c6ccccc56)[C@@]43C)C2=CC1=O [Paxilline, (2R,4bS,6aS,12bS,12cR,14aS)-4b-hydroxy-2-(1-hydroxy-1-methylethyl)-12b,12c-dimethyl-5,6,6a,7,12,12b,12c,13,14,14a-decahydro-2H-chromeno[5′,6′:6,7]indeno[1,2-b]indol-3(4bH)-one]
seizures caused by paxilline (WT and KO mice; 10 mg/kg paxilline, WT and KO mice): caused seizures | tremor in WT mice (WT and KO mice; paxilline 3 mg/kg compared to 0.35 mg/kg, WT mice): induced tremor | tremor in KO mice (WT and KO mice; paxilline 3 mg/kg, KO mice): not evident | changes in excitability and higher fAHP in neurons from Ube3a m-/p+ mice [4]: normalized | augmented neuronal excitability and fAHP changes in neurons of KO organoids ([1]; paxilline 10 μM, KO organoids): normalized | spontaneous burst firing in neurons of UBE3A KO organoids ([1]; paxilline 10 μM, perforated patch recordings, KO organoids): completely converted spontaneous burst firing into single AP firing | changes in neuronal excitability, fAHP, and network hyperactivity and synchronization in human cortical organoids from UBE3A knockout stem cells [1]: normalized | differences in fAHP amplitude and AP firing frequency between KO and WT neurons ([2]; 5 μM paxilline): normalized | excitability and fAHP in KO neurons ([2]; 5 μM paxilline, KO neurons): successfully restored excitability and fAHP to WT levels | fAHP in WT neurons ([2]; 20 μM paxilline, WT neurons): significantly lowered fAHP | fAHP in WT neurons ([2]; paxilline 5 μM, WT neurons): did not significantly reduce the fAHP | enhancement in the delta band (1-4 Hz) of LFP in Ube3a m-/p+ mice (WT and Ube3a m-/p+ mice [5]): normalized | seizure susceptibility in KO mice (WT and Ube3a m-/p+ mice [6]; paxilline high dose 3 mg/kg, KO mice): responded positively | seizure susceptibility in WT mice (WT and Ube3a m-/p+ mice [6]; paxilline high dose 3 mg/kg, WT mice): increased seizure susceptibility | seizure grade of Ube3a m-/p+ mice versus WT mice (WT and Ube3a m-/p+ mice [6]; paxilline pre-treatment 0.35 mg/kg i.p., picrotoxin 3 mg/kg i.p.): normalize | frequencies and amplitudes of calcium transients in the organoids [7]: decreased both the frequencies and the amplitudes | higher levels of network synchronization in KO and AS iPSC-derived organoids [7]: abolished | reduction in the latency to myoclonic seizure in Ube3a m-/p+ mice (WT and Ube3a m-/p+ mice [8]): normalized

picrotoxin
seizure grade based on Racine's scale (WT and Ube3a m-/p+ mice [6]; picrotoxin 3 mg/kg i.p., Ube3a m-/p+ mice): 5 grade | seizure grade based on Racine's scale (WT and Ube3a m-/p+ mice [6]; picrotoxin 3 mg/kg i.p., WT mice): 1-2 grade
